Experimental data taken from publication PMC6116705, “Design, synthesis, in vitro antiproliferative activity and apoptosis-inducing studies of 1-(3′,4′,5′-trimethoxyphenyl)-3-(2′-alkoxycarbonylindolyl)-2-propen-1-one derivatives obtained by a molecular hybridisation approach” (Journal of Enzyme Inhibition and Medicinal Chemistry, 2018).
Entries after “also recorded” stand apart in the source; their conditions may differ.

Experiments:
[1] = tested on: human myeloid leukaemia U-937 cells; test: MTT cytotoxicity assay, U-937; assay type: cell-based; conditions: U-937, MTT, 72 h, read-out: IC50, inhibition of cell growth
Protocol: (§1) U-937 (human myeloid leukaemia) cells from DSMZ (German Collection of Microorganisms and Cell Cultures, Braunschweig, Germany) and U-937 cells overexpressing human Bcl-2 protein (designated U-937/Bcl-2, donated by Dr Jacqueline Bréard, INSERM U749, Faculté de Pharmacie Paris-Sud., Châtenay-Malabry, France) were cultured in RPMI-1640 medium containing 10% (v/v) heat-inactivated foetal bovine serum, 100 μg/mL streptomycin and 100 U/mL penicillin, incubated at 37 °C in a humidified atmosphere containing 5% CO2 as described. The functioning of U-937/Bcl-2 cells was tested using the cytotoxic agent 1-β-D-arabino-furanosylcytosine as previously described. Human peripheral blood mononuclear cells (PBMC) were isolated from heparin-anticoagulated blood of healthy volunteers by centrifugation with Ficoll-Paque Plus (GE Healthcare Bio-Sciences AB, Uppsala, Sweden). PBMC were also stimulated with phytohemagglutinin (2 μg/mL) for 48 h before the experimental treatment. The trypan blue dye exclusion method was used for counting the living/dead cells by a hematocytometer with 95% viability in all experiments. The cytotoxicity of compounds was evaluated by the colorimetric 3-(4,5-dimethyl-2-thiazolyl-)-2,5-diphenyl-2H-tetrazolium bromide (MTT) assay as previously described. Briefly, 5 × 10^3 exponentially growing cells were seeded in 96-well microculture plates with increasing concentrations of compounds for 72 h. After the addition of MTT (0.5 mg/mL), cells were incubated at 37 °C for 4 h. Sodium dodecyl sulphate (10% w/v) in 0.05 M HCl was added to the wells and then incubated at room temperature overnight in the dark. Absorbance was measured at 570 nm. […] Values are mean ± SE from at least three independent experiments, each performed in triplicate. Compounds were dissolved in DMSO and kept in the dark at 25 °C.

U-937/Bcl-2 cells = test: Cell cycle phase distribution and apoptosis, flow cytometry (propidium iodide) and fluorescence microscopy, U-937/Bcl-2; assay type: cell-based, human
Protocol: (§2) Fluorescent microscopy and flow cytometric analysis of propidium iodide-stained cells were performed as described. Briefly, cells were harvested and fixed in 3% paraformaldehyde and incubated at room temperature for 10 min. The fixative was removed, and the cells were washed with PBS, resuspended in 30–50 μL of PBS containing 20 μg/mL bis-benzimide trihydrochloride (Hoechst 33258) and incubated at room temperature for 15 min. Stained nuclei were visualized using a Zeiss fluorescence microscope.
(§3) Flow cytometric analysis was carried out using a BD FACSVerse™ cytometer (BD Biosciences, San Jose, CA, USA).

[2] = tested on: human promyelocytic leukemia (HL-60) cells; test: Antiproliferative assay, cell counting (Coulter Counter), HL-60; assay type: cell-based; conditions: Homo sapiens; HL-60, 72–96 h; read-out: IC50, inhibition of proliferation
Protocol: Human cervix carcinoma (HeLa), human colon carcinoma (HT29), human breast carcinoma (MCF-7) and human lymphoma (HL-60) cells (3–5 × 10^4 cells) and a serial (five-fold) dilution of the test compounds were added to a 96-well microtiter plate. The cells were incubated for 72–96 h (depending on the tumor cell line) at 37 °C in a humidified 5% CO2 atmosphere. At the end of the incubation period, the cells were counted in a Coulter Counter (Coulter Electronics Ltd, Harpenden Herts, UK). […] The IC50 values represent the average (±standard deviation) of at least two to four independent experiments.

U-937 cells = test: Cell cycle phase distribution and apoptosis, flow cytometry (propidium iodide) and fluorescence microscopy, U-937; assay type: cell-based, human
Protocol: as §2, §3

[3] = tested on: human peripheral blood mononuclear cells (PBMC); test: Cytotoxicity on normal PBMC (quiescent or PHA-activated); assay type: cell-based; conditions: up to 10 μM, 24 h
Protocol: as §1, with “Briefly, 5 × 10^3 exponentially growing cells were seeded in 96-well microculture plates with increasing concentrations of compounds for 72 h.” left out

CCOC(=O)c1[nH]c2ccc(OC)cc2c1/C=C/C(=O)c1cc(OC)c(OC)c(OC)c1 [Compound 9d, (E)-Ethyl 5-methoxy-3-(3-oxo-3-(3,4,5-trimethoxyphenyl)prop-1-en-1-yl)-1H-indole-2-carboxylate]
IC50 [1]: 2.9 ± 0.7 µM | % G1 (U-937/Bcl-2 cells; U-937/Bcl-2, 24 h, 0.3 µM): 41.0 ± 1.3% | % G2-M (U-937/Bcl-2 cells; U-937/Bcl-2, 24 h, 0.3 µM): 29.7 ± 0.2% | % S (U-937/Bcl-2 cells; U-937/Bcl-2, 24 h, 0.3 µM): 25.1 ± 1.1% | % Sub-G1 (U-937/Bcl-2 cells; U-937/Bcl-2, 24 h, 0.3 µM): 2.8 ± 0.2% | % G1 (U-937/Bcl-2 cells; U-937/Bcl-2, 24 h, 1 µM): 29.3 ± 0.3 % | % G2-M (U-937/Bcl-2 cells; U-937/Bcl-2, 24 h, 1 µM): 35.7 ± 0.2 % | % S (U-937/Bcl-2 cells; U-937/Bcl-2, 24 h, 1 µM): 28.7 ± 0.5% | % Sub-G1 (U-937/Bcl-2 cells; U-937/Bcl-2, 24 h, 1 µM): 4.6 ± 0.3% | % G1 (U-937/Bcl-2 cells; U-937/Bcl-2, 48 h, 0.3 µM): 49.1 ± 0.4% | % G2-M (U-937/Bcl-2 cells; U-937/Bcl-2, 48 h, 0.3 µM): 18.9 ± 0.7% | % S (U-937/Bcl-2 cells; U-937/Bcl-2, 48 h, 0.3 µM): 26.7 ± 2.2% | % Sub-G1 (U-937/Bcl-2 cells; U-937/Bcl-2, 48 h, 0.3 µM): 4.4 ± 1.0% | % G1 (U-937/Bcl-2 cells; U-937/Bcl-2, 48 h, 1 µM): 33.2 ± 2.3 % | % G2-M (U-937/Bcl-2 cells; U-937/Bcl-2, 48 h, 1 µM): 31.0 ± 2.8 % | % S (U-937/Bcl-2 cells; U-937/Bcl-2, 48 h, 1 µM): 27.4 ± 0.2% | % Sub-G1 (U-937/Bcl-2 cells; U-937/Bcl-2, 48 h, 1 µM): 6.5 ± 0.5% | % G1 (U-937/Bcl-2 cells; U-937/Bcl-2, 72 h, 0.3 µM): 53.6 ± 1.2% | % G2-M (U-937/Bcl-2 cells; U-937/Bcl-2, 72 h, 0.3 µM): 20.0 ± 0.8% | % S (U-937/Bcl-2 cells; U-937/Bcl-2, 72 h, 0.3 µM): 21.8 ± 1.4% | % Sub-G1 (U-937/Bcl-2 cells; U-937/Bcl-2, 72 h, 0.3 µM): 3.1 ± 0.9% | % G1 (U-937/Bcl-2 cells; U-937/Bcl-2, 72 h, 1 µM): 41.6 ± 2.5 % | % G2-M (U-937/Bcl-2 cells; U-937/Bcl-2, 72 h, 1 µM): 24.8 ± 2.6% | % S (U-937/Bcl-2 cells; U-937/Bcl-2, 72 h, 1 µM): 24.0 ± 1.8% | % Sub-G1 (U-937/Bcl-2 cells; U-937/Bcl-2, 72 h, 1 µM): 7.5 ± 1.2% | apoptosis induction (fluorescence microscopy and flow cytometry) (U-937/Bcl-2 cells; U-937/Bcl-2 cells): only induced low apoptosis | IC50 [2]: 3.4 ± 1 µM | % G1 (U-937 cells; U-937, 24 h, 3 µM): 52.3 ± 0.2% | % G2-M (U-937 cells; U-937, 24 h, 3 µM): 21.2 ± 0.4% | % S (U-937 cells; U-937, 24 h, 3 µM): 21.8 ± 0.0% | % Sub-G1 (U-937 cells; U-937, 24 h, 3 µM): 3.5 ± 0.3% | % G1 (U-937 cells; U-937, 24 h, 10 µM): 44.9 ± 0.6% | % G2-M (U-937 cells; U-937, 24 h, 10 µM): 24.8 ± 0.3% | % S (U-937 cells; U-937, 24 h, 10 µM): 22.9 ± 0.4% | % Sub-G1 (U-937 cells; U-937, 24 h, 10 µM): 5.6 ± 0.5% | % G1 (U-937 cells; U-937, 48 h, 3 µM): 52.9 ± 0.9% | % G2-M (U-937 cells; U-937, 48 h, 3 µM): 18.3 ± 0.3% | % S (U-937 cells; U-937, 48 h, 3 µM): 25.8 ± 0.5% | % Sub-G1 (U-937 cells; U-937, 48 h, 3 µM): 2.3 ± 0.1% | % G1 (U-937 cells; U-937, 48 h, 10 µM): 55.3 ± 0.7% | % G2-M (U-937 cells; U-937, 48 h, 10 µM): 16.9 ± 0.5% | % S (U-937 cells; U-937, 48 h, 10 µM): 23.1 ± 0.1% | % Sub-G1 (U-937 cells; U-937, 48 h, 10 µM): 4.1 ± 0.4% | % G1 (U-937 cells; U-937, 72 h, 3 µM): 53.6 ± 2.4% | % G2-M (U-937 cells; U-937, 72 h, 3 µM): 15.4 ± 1.0% | % S (U-937 cells; U-937, 72 h, 3 µM): 21.3 ± 1.0% | % Sub-G1 (U-937 cells; U-937, 72 h, 3 µM): 7.9 ± 0.2% | % G1 (U-937 cells; U-937, 72 h, 10 µM): 55.1 ± 0.0% | % G2-M (U-937 cells; U-937, 72 h, 10 µM): 15.5 ± 0.8% | % S (U-937 cells; U-937, 72 h, 10 µM): 22.6 ± 0.7% | % Sub-G1 (U-937 cells; U-937, 72 h, 10 µM): 5.4 ± 0.2% | apoptosis induction (fluorescence microscopy and flow cytometry) (U-937 cells; U-937 cells): not an apoptotic inducer | Toxicity to normal PBMC [3]: devoid of significant cytotoxic activity; also recorded: no appreciable toxicity
